For one molecule, Km results are on record in patent US5646249A, “Isolation and characterization of a novel chaperone protein” (The United States of America as represented by the …, priority 1994, dated 1997).

For this assay, the target named is T1, human STCH, GST-STCH fusion protein representing STCH codons 4-471 (SEQ ID NO: 2) (Homo sapiens, UniProt P48723).
T1 construct: near full-length GST-STCH fusion protein, representing STCH codons 4-471; made in house; host or cells: E. coli HB101
T1 sequence (P48723 4-471): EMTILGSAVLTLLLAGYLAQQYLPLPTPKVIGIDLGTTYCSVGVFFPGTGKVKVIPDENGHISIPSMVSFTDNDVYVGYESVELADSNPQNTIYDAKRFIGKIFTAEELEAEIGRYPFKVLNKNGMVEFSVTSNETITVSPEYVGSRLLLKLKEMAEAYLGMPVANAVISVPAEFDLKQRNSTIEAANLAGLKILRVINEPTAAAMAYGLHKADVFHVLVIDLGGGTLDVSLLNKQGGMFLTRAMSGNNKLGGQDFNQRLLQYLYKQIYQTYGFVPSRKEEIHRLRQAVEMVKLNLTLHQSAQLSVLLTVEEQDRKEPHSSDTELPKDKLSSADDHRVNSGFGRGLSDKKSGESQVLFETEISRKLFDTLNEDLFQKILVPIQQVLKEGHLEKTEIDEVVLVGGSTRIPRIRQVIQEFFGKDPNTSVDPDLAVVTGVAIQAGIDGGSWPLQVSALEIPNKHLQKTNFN
The experiment in a line: ATPase assay of purified GST-STCH fusion protein. It counts as biochemical. The following applies: read-out: Km for the unstimulated STCH ATPase (ATP); unstimulated (no peptide), 37° C., recombinant GST-STCH codons 4-471. How it is done: Inspection of the primary amino acid sequence of the STCH product predicts a functional ATPase molecule. ATPase activity was tested using a GST -Stch plasmid that encoded a functional fusion protein including STCH codons 4-471 (See Table II and SEQ ID NO: 1). A preferred strategy for preparing this fusion protein is provided in Example III and a preferred strategy for performing ATPase assays is provided in Example VI. To exclude contaminating sources of ATPase, the GST leader peptide and the GST-STCH affinity-purified fusion proteins were eluted off glutathione--Sepharose beads, then purified by anion-exchange chromatography (mono Q) and the protein composition of the column fractions was analyzed by SDS--PAGE. The peak ATPase activity of the GST --STCH product coincided with fractions 11 and 12. While no measurable ATPase activity was detected in fractions 11 and 12 from the GST leader sequence. These fractions were pooled from the GST--STCH sample and ATPase activity was measured in the presence or absence of two different peptides. […] The Km for the unstimulated STCH ATPase was 2-3 μM ATP and the measured ATPase activity was linear with respect to time and concentration over the range tested. […]

By Km is commonly meant the concentration of substrate that gives half-maximal velocity.

In the case of `Nc1ncnc2c1ncn2[C@@H]1O[C@H](COP(=O)(O)OP(=O)(O)OP(=O)(O)O)[C@@H](O)[C@H]1O` [ATP], the Km is 2 to 3 µM.
